Key:
[1] = tested on: HeLa human cervical tumor cells; assay: Proliferation assay (HeLa cell line); assay type: cell-based; settings: 96 h, 4 days incubation, crystal violet, read-out: Biological Assay 2: Proliferation assay (HeLa cell line) median IC50
Text: Human tumour cells were originally obtained from the American Type Culture Collection (ATCC), the Deutsche Sammlung von Mikroorganismen und Zellkulturen (DSMZ, German Collection of Microorganisms and Cell Cultures), or Epo GmbH Berlin.

[2] = molecular target: T1, (recombinant) catalytic domain of human Bub1 (amino acids 704-1085) (Homo sapiens, UniProt O43683); assay: Equilibrium probe competition assay (TR-FRET kinase binding assay); settings: read-out: IC50 (Assay 5, probe competition)
T1 construct: catalytic domain of human Bub1 (amino acids 704-1085); 6xHis (N); made in house; host or cells: Hi5 insect cells
Text: Equilibrium Probe Competition Assay:
Bub1 binding affinity of compounds described in the present invention were quantified using a time-resolved fluorescence energy transfer (TR-FRET) kinase binding assay which measures displacement of the synthetic fluorescent probe 5-[({2-[2-({2-[1-(4-ethoxy-2,6-difluorobenzyl)-1H-indazol-3-yl]-4-(pyridin-4-ylamino)pyrimidin-5-yl}oxy)ethoxy]ethyl}carbamothioyl)amino]-2-(6-hydroxy-3-oxo-3H-xanthen-9-yl)benzoic acid (5-5-1) by the (recombinant) catalytic domain of human Bub1 (amino acids 704-1085). The enzyme was expressed in Hi5 insect cells with N-terminal 6×His/AviTag@ seqences, purified by affinity-(Ni-NTA) and size exclusion chromatography and site-specific biotinylated ex-vivo using a commercially available kit (Avidity).
In a typical assay 11 different concentrations of each compound (0.1 nM, 0.33 nM, 1.1 nM, 3.8 nM, 13 nM, 44 nM, ˜0.15 μM, ˜0.51 μM, ˜1.7 μM, 5.9 μM and 20 μM) were tested in duplicate within the same microtiter plate. To this end, 100-fold concentrated compound solutions (in DMSO) were made by serial dilution (1:3.4) of freshly prepared 2 mM stocks in a clear low volume 384-well source microtiter plate (Greiner Bio-One, Frickenhausen, Germany), from which 50 nl of compounds were transferred into a black low volume test microtiter plate from the same supplier. Subsequently 2 μL of a solution containing biotinylated Bub1 (the final concentration of Bub1 was adjusted depending on the activity of the enzyme lot in order to be within the linear dynamic range of the assay: typically ˜200 pM were used) and 1 nM Streptavidin Terbium Cryptate (Cisbio, No. 610SATLB) in aqueous assay buffer [50 mM Tris/HCl pH 7.5, 200 mM potassium chloride (KCl), 1.0 mM dithiothreitol (DTT), 0.1 mM sodium ortho-vanadate, 1% (v/v) glycerol, 0.01% (w/v) bovine serum albumine (BSA), 0.005% (v/v) Triton X-100 (Sigma), were added to the compounds in the test plate and the mixture was incubated for 15 min at 22′C to allow pre-equilibration of the putative enzyme-inhibitor complexes before the start of the probe competition reaction, which was initiated by the addition of 3 μL 1.67-fold concentrated solution (in assay buffer) of 5-5-1 (final concentration: 1.5 nM). The resulting mixture (5 μL final volume) was Incubated at 220 during 0, 15, 30, 60, 120, 240 and 1440 min. After each time point the resonance energy transfer from the Streptavidin Tb cryptate to the 3′,6′-dihydroxy-3H-spiro[2-benzofuran-1,9′-xanthen]-3-one moiety of 5-5-1 was measured in order to quantify the amount of fluorescent probe displaced by the test compounds. To this end, the fluorescence emissions at 520 nm and 490 nm after excitation at 330-350 nm were measured in a Pherastar FS TR-FRET plate reader, (BMG Lab technologies, Offenburg, Germany) and the ratio of the emissions (520 nm/490 nm) was taken as Indicator for the amount of Bub1/5-5-1 equilibrium complexes. The data were normalized using two sets of control wells for high-(=enzyme reaction without inhibitor=0%=Minimum inhibition) and low-(=all assay components without enzyme=100%=Maximum inhibition) Bub1 activity. IC50 values were calculated by fitting the normalized inhibition data to a 4-parameter logistic equation (Minimum, Maximum, IC50, Hill; Y=Max+(Min−Max)/(1+(X/IC50)Hill)).

[3] = tested on: pre-induced phospho-histone 2A (kinase activity of Bub1); assay: H2A Abrogation-Assay (cell-based mechanistic assay, pre-treatment with Nocodazole); settings: Nocodazole 16 h, then test compound 1 h; read-out: Biological Assay 4:2: H2A Abrogation IC50
Text: Biological Assay 4.2: Abrogation-Assay
This assay measures the inhibition of histone 2A phosphorylation, which was induced by pre-treatment of the cells with Nocodazole, by a Bub1 kinase inhibitor.

[4] = molecular target: T1, (recombinant) catalytic domain of human Bub1 (amino acids 704-1085); assay: Bub1 kinase assay (TR-FRET); assay type: biochemical; settings: ATP 10 μM, 60 min reaction, pH 7.5; read-out: Biological Assay 1: Bub1 kinase assay median IC50
[5] = tested on: histone 2A phosphorylation (kinase activity of Bub1); assay: H2A Formation-Assay (cell-based mechanistic assay, co-treatment with Nocodazole); settings: 16 h, read-out: Biological Assay 4.1: H2A Formation IC50
[6] = tested on: HeLa human cervical tumor cells; assay: Proliferation Assay (HeLa + Paclitaxel); assay type: cell-based; settings: 3 nM paclitaxel, test substance 92 hours; read-out: Biological Assay 3: Proliferation Assay (HeLa + Paclitaxel) IC50
Text: Proliferation Assay (HeLa+Paclitaxel):

Compound: CCOc1cc(F)c(Cn2nc(-c3ncc(OCCCO)c(Nc4ccnc(NC(C)=O)c4)n3)c3ccccc32)c(F)c1 [Example 2-1-5, N-[4-({2-[1-(4-ethoxy-2,6-difluorobenzyl)-1H-indazol-3-yl]-5-(3-hydroxypropoxy)pyrimidin-4-yl}amino)pyridin-2-yl]acetamide]
- IC50 [1]: > 10000 nM
- IC50 ([2]; Time 15 min): 0.59 nM
- IC50 ([2]; Time 30 min): 0.49 nM
- IC50 ([2]; Time 60 min): 0.32 nM
- IC50 ([2]; Time 90 min): 0.26 nM
- IC50 ([2]; Time 120 min): 0.2 nM
- IC50 ([2]; Time 240 min): 0.16 nM
- IC50 ([2]; Time 1440 min): 0.098 nM
- IC50 [3]: 4.4 nM
- IC50 [4]: 3.5 nM
- IC50 [5]: 28 nM
- IC50 [6]: 100 nM

Compound: CCOc1cc(F)c(Cn2nc(-c3ncc(OCCCO)c(Nc4ccncc4Cl)n3)c3ccccc32)c(F)c1 [Example 2-1-6, 3-{[4-[(3-chloropyridin-4-yl)amino]-2-[1-(4-ethoxy-2,6-difluorobenzyl)-1H-indazol-3-yl]pyrimidin-5-yl}oxy)propan-1-ol]
- IC50 [1]: 5900 nM
- IC50 ([2]; Time 15 min): 1.7 nM
- IC50 ([2]; Time 30 min): 0.87 nM
- IC50 ([2]; Time 60 min): 0.85 nM
- IC50 ([2]; Time 90 min): 1.2 nM
- IC50 ([2]; Time 120 min): 0.38 nM
- IC50 ([2]; Time 240 min): 0.31 nM
- IC50 ([2]; Time 1440 min): 0.2 nM
- IC50 [3]: 58 nM
- IC50 [4]: 8.3 nM
- IC50 [5]: 45 nM
- IC50 [6]: 120 nM

Compound: Cc1nccc(Nc2nc(-c3nn(Cc4c(F)cc(OCC(F)F)cc4F)c4ccccc34)ncc2OCCCO)n1 [Example 2-1-21, 3-[(2-{1-[4-(2,2-difluoroethoxy)-2,6-difluorobenzyl]-1H-indazol-3-yl}-4-[(2-methylpyrimidin-4-yl)amino]pyrimidin-5-yl)oxy]propan-1-ol]
- IC50 [1]: > 10000 nM
- IC50 [3]: 56 nM
- IC50 [4]: 11 nM
- IC50 [5]: 26 nM
- IC50 [6]: 170 nM

Compound: Cc1nccc(Nc2nc(-c3nn(Cc4c(F)cc(OCC5CC5)cc4F)c4ccccc34)ncc2OCCCO)n1 [Example 2-1-24, 3-[(2-{1-[4-(cyclopropylmethoxy)-2,6-difluorobenzyl]-1H-indazol-3-yl}-4-[(2-methylpyrimidin-4-yl)amino]pyrimidin-5-yl)oxy]propan-1-ol]
- IC50 [1]: 9940 nM
- IC50 [3]: 0.85 nM
- IC50 [4]: 23 nM
- IC50 [5]: 2.1 nM
- IC50 [6]: 330 nM

Compound: OCCCOc1cnc(-c2nn(Cc3c(F)cc(OCC(F)F)cc3F)c3ccccc23)nc1Nc1ccncc1Cl [Example 2-1-26, 3-[(4-[(3-chloropyridin-4-yl)amino]-2-{1-[4-(2,2-difluoroethoxy)-2,6-difluorobenzyl]-1H-indazol-3-yl}pyrimidin-5-yl)oxy]propan-1-ol]
- IC50 [1]: 3790 nM
- IC50 [3]: 38 nM
- IC50 [4]: 14 nM
- IC50 [5]: 14 nM
- IC50 [6]: 64 nM

Source: patent US20170305882A1, “BENZYL SUBSTITUTED INDAZOLES AS BUB1 KINASE INHIBITORS” (Bayer Pharma Aktiengesellschaft, priority 2014, published 2017)
